Source: patent publication US8592382B2, “Formulations for the oral administration of therapeutic agents and related methods” (The University of British Columbia, priority 2007, dated 2013)
Like-named read-outs stand apart in the source and are kept apart here.

What was measured:
[1] = cited from earlier work
[2] = Solubility of the drug substance in water, solvents or simulated GI media; format: physicochemical
Leishmania = conditions: visceral leishmaniasis, IV therapy; cited from earlier work
[3] = oral; cited from earlier work

Compound: Clc1ccc(COC(Cn2ccnc2)c2ccc(Cl)cc2Cl)cc1 (centres unmarked) [econazole]
- Solubility in ethanol ([1]; ethanol): ≤ 20 mg/mL
- Solubility in water ([1]; water, 19-66° F.): < 1 mg/mL

Compound: CC(=O)O[C@@]12CO[C@@H]1C[C@H](O)[C@@]1(C)C(=O)[C@H](O)C3=C(C)[C@@H](OC(=O)[C@H](O)[C@@H](NC(=O)OC(C)(C)C)c4ccccc4)C[C@@](O)([C@@H](OC(=O)c4ccccc4)[C@H]21)C3(C)C [docetaxel]
- Solubility in water ([1]; water): 0.01 to 0.025 mg/mL

Compound: C[C@@H]1[C@H](O)[C@@H](C)/C=C/C=C/C=C/C=C/C=C/C=C/C=C/[C@H](O[C@@H]2O[C@H](C)[C@@H](O)[C@H](N)[C@@H]2O)C[C@@H]2O[C@](O)(C[C@@H](O)C[C@@H](O)[C@H](O)CC[C@@H](O)C[C@@H](O)CC(=O)O[C@H]1C)C[C@H](O)[C@H]2C(=O)O (relative stereo) [amphotericin B, [1R-(1R*,3S*,5R*,6R*,9R*,11R*,15S*,16R*,17R*,18S*,19E,21E,23E,25E,27E,29E,31E,33R*,35S*,36R*,37S,)]-33-[(3-amino-3,6-dideoxy-β-D-mannopyranosyl)oxy]1,3,5,6,9,11,17,37-octahydroxy-15,16,18-trimethyl-13-oxo-14,39-dioxabicyclo-[33.3.1]nonatriaconta-19,21,23,25,27,29,31-heptaene-36-carboxylic acid]
- AmpB solubility in aqueous solution ([2]; aqueous solution (pH 7)): negligible
- Solubility of AmpB neat powder in simulated GI media ([2]; simulated gastric and intestinal fluids): not soluble
- Solubility of crystalline substance in water ([1]; water): insoluble
- Cure rate (Leishmania): 97%
- Bioavailability [3]: negligible
